Test results reported in patent publication US9006226B2, “Dihydropteridinones I” (Boehringer Ingelheim International GmbH, priority 2012, dated 2015).

Test system: Aβ42
Experiment: Aβ42 vs. Aβ total production in H4 neuroglioma cells stably expressing human APP695 (Meso Scale Discovery electrochemiluminescence assay)
Assay type: cell-based
Conditions: the higher the ratio, the more specific the inhibition of Aβ42
Procedure: Cells were plated out to near confluency. The compounds to be tested were received as 10 mM stocks in 100% DMSO. A dilution series was initially generated in 100% DMSO and then diluted 200-fold in cell culture media such that the tested concentration range was 30 μM to 0.1 nM and the final DMSO concentration was 0.5%. The diluted compounds were incubated with the cells for 22 hours in an incubator at 37° C. and 5% CO2. Aβ42 as well as Aβ total levels were then measured post-incubation from the supernatant of the cells. Aβ42 levels were determined using a specific electrochemiluminescence assay provided by Meso Scale Discovery (Catalog #L21CA-1) according to the manufacturer's protocol. Aβ total levels were likewise determined using a specific electrochemiluminescence assay provided by Meso Scale Discovery (Catalog #L21ZA-1) according to the manufacturer's protocol.
In order to absolutely define the described compounds as modulators of γ-Secretase as opposed to simply inhibitors of γ-Secretase, measurements of not only Aβ42 but also Aβ total are performed.

| Structure (SMILES) | Ratio Aβ(total)/Aβ42 (Aβ total IC50/Aβ42 IC50) |
| --- | --- |
| CCc1nc(Nc2ccc(-n3cnc(C)c3)c(OC)c2)nc2c1N(C)C(=O)[C@]1(C)C[C@@H](OC)CN21 [Example 25] | 73 |
| CCc1nc(Nc2ccc(-n3cnc(C)c3)c(OC)c2)nc2c1NC(=O)[C@@]1(C)[C@@H](OC)CN21 (racemic) [Example 27] | 70 |
| CCc1nc(Nc2ccc(-c3ccnc(C)c3)cc2)nc2c1N(C)C(=O)C1CCCN21 (stereo not shown) [Example 8] | 62 |
| CCc1nc(Nc2ccc(-n3cnc(C)c3)c(OC)c2)nc2c1N(C)C(=O)C1COCCN21 (stereo not shown) [Example 29] | 76 |
| CCc1nc(Nc2ccc(-n3cnc(C)c3)c(OC)c2)nc2c1N(C)C(=O)[C@H]1[C@H](c3ccc(F)cc3)CCN21 (racemic) [Example 23] | 90 |
| CCc1nc(Nc2ccc(-n3cnc(C)c3)c(OC)c2)nc2c1NC(=O)[C@H]1[C@@H](c3ccc(F)cc3)CCN21 (racemic) [Example 22] | 71 |
| Cc1cn(-c2ccc(Nc3nc(CC(C)C)c4c(n3)N3CCCC3C(=O)N4C)cc2C#N)cn1 (stereo not shown) [Example 35] | 71 |
| CCc1nc(Nc2ccc(-n3cnc(C)c3)c(C#N)c2)nc2c1N(C)C(=O)[C@@H]1C[C@@H](OC)CN21 [Example 15] | 36 |
| CCc1nc(Nc2ccc(-n3cnc(C)c3)c(OC)c2)nc2c1NC(=O)C1COCCN21 (stereo not shown) [Example 28] | 29 |
| CCCN1C(=O)C2CCCCCN2c2nc(Nc3ccc(-c4ccnc(C)c4)cc3)ncc21 (stereo not shown) [Example 5] | 14 |
| CCc1nc(Nc2ccc(-n3cnc(C)c3)c(OC)c2)nc2c1NC(=O)[C@@H]1C[C@@H](OC)CN21 [Example 17] | 68 |
| CCN1C(=O)C2CCCCCN2c2nc(Nc3ccc(-n4cnc(C)c4)cc3OC)ncc21 (stereo not shown) [Example 5-7] | 3 |
| CCc1nc(Nc2ccc(-c3cnc(C)o3)nc2)nc2c1N(C)C(=O)C1CCCN21 (stereo not shown) [Example 9] | >24 |
| COc1cc(Nc2nc(C(C)C)c3c(n2)N2CCN(C(=O)OC(C)(C)C)CC2C(=O)N3C)ccc1-n1cnc(C)c1 (stereo not shown) [Example 37] | 12 |
| CCc1nc(Nc2ccc(-n3cnc(C)c3)c(C#N)c2)nc2c1NC(=O)[C@@H]1C[C@@H](OC)CN21 [Example 16] | 33 |
| CC(C)Cc1nc(Nc2ccc(-c3cnn(C)c3)cc2)nc2c1N(C)C(=O)C1CCCN21 (stereo not shown) [Example 34] | 30 |
| CCc1nc(Nc2ccc(-c3cnc(C)o3)c(OC)c2)nc2c1NC(=O)[C@@H]1C[C@@H](OC)CN21 [Example 19] | 82 |
| CCN1C(=O)C2CCCCCN2c2nc(Nc3ccc(-n4cnc(C)c4)cc3)ncc21 (stereo not shown) [Example 5-6] | 43 |
| COc1cc(Nc2ncc3c(n2)N2CCCOCC2C(=O)N3)ccc1-n1cnc(C)c1 (stereo not shown) [Example 30] | 96 |
| CCc1nc(Nc2ccc(-n3cnc(C)c3)c(OC)c2)nc2c1N(C)C(=O)[C@@H]1C[C@@H](OC)CN21 [Example 14] | 67 |
| CCN1C(=O)C2CCCCCN2c2nc(Nc3ccc(-c4ccnc(C)c4)cc3)ncc21 (stereo not shown) [Example 3] | 17 |

More lines, now with the values ahead:

| Ratio Aβ(total)/Aβ42 (Aβ total IC50/Aβ42 IC50) | Structure (SMILES) |
| --- | --- |
| 96 | CCc1nc(Nc2ccc(-n3cnc(C)c3)c(OC)c2)nc2c1N(C)C(=O)C1CCCN21 (stereo not shown) [Example 6] |
| 86 | CCc1nc(Nc2ccc(-n3cnc(C)c3)c(OC)c2)nc2c1N(C)C(=O)C1CCCCN21 (stereo not shown) [Example 36] |
| 44 | CCCN1C(=O)C2CCCCCN2c2nc(Nc3ccc(-n4cnc(C)c4)c(OC)c3)ncc21 (stereo not shown) [Example 4] |
| 14 | COc1cc(Nc2nc(SC)c3c(n2)N2CCCCC2C(=O)N3C)ccc1-n1cnc(C)c1 (stereo not shown) [Example 13] |
| 98 | CCc1nc(Nc2ccc(-n3cnc(C)c3)c(OC)c2)nc2c1NC(=O)C1CCCN21 (stereo not shown) [Example 7] |
| >175 | CCN1C(=O)C2CCCCCN2c2nc(Nc3cnc(-n4cnc(C)c4)c(OC)c3)ncc21 (stereo not shown) [Example 5-4] |
| >10 | COc1cc(Nc2ncc3c(n2)N2CCCC2C(=O)N3C)ccc1-n1cnc(C)n1 (stereo not shown) [Example 12-1] |
| 13 | CCN1C(=O)C2CCCCCN2c2nc(Nc3ccc(-c4cnc(C)s4)c(OC)c3)ncc21 (stereo not shown) [Example 5-5] |
| >27 | Cc1cn(-c2ccc(Nc3ncc4c(n3)N3CCCC3C(=O)N4C)cc2F)cn1 (stereo not shown) [Example 12-3] |
| >39 | COc1cc(Nc2ncc3c(n2)N2CCCC2C(=O)N3C)ccc1-n1ncnc1C (stereo not shown) [Example 12-4] |
| 55 | COc1cc(Nc2ncc3c(n2)N2CCCOC2(C)C(=O)N3C)ccc1-n1cnc(C)c1 (stereo not shown) [Example 31] |
| 66 | COc1cc(Nc2nc(C(C)C)c3c(n2)N2CCCC2C(=O)N3C)ccc1-n1cnc(C)c1 (stereo not shown) [Example 32] |
| >5 | CN1C(=O)C2CCCN2c2nc(Nc3ccc(-c4cnn(C)c4)nc3)ncc21 (stereo not shown) [Example 12-2] |
| 64 | CCN1C(=O)C2CCCCCN2c2nc(Nc3ccc(-n4ccnc4)c(OC)c3)ncc21 (stereo not shown) [Example 5-2] |
| >310 | COc1cc(Nc2ncc3c(n2)N2CCCC2C(=O)N3C)ccc1-n1cnc(C)c1 (stereo not shown) [Example 11] |
| 59 | COc1cc(Nc2ncc3c(n2)N2CCCCCC2C(=O)N3C)ccc1-n1cnc(C)c1 (stereo not shown) [Example 2] |
